Converted amounts (≈) assume the structure as drawn.
Assays:
recombinant human DHODH = biological target: T1, recombinant human DHODH (Homo sapiens, UniProt Q02127); experiment: recombinant DHODH enzymatic assay (DCIP reduction); format: biochemical; conditions: 25°C, DCIP reduction at 600 nm
T1 construct: N-terminally truncated (first 29 amino acids) human DHODH; made in house; host or cells: E. coli BL21(DE3)/pDIA17
Protocol: Enzymatic assay DHODH activity was determined at 25°C following the reduction of DCIP at 600 nm (ε = 18,800 M^-1 cm^-1) on a spectrophotometer. […] The reaction medium used for this contained 50 mM Tris-HCl pH 8.0, 0.1% Triton X-100, 0.1 mM L-DHO, 0.025 mM CoQ1 and 0.06 mM DCIP. The reaction was started by addition of the enzyme.

measles virus = experiment: microbe, parasite or virus in culture; conditions: Measles morbillivirus; for MIC50: 24 h; for IC50: HEK-293T, read-out: IC50 on the measles virus

T1 sequence (Q02127 29-395): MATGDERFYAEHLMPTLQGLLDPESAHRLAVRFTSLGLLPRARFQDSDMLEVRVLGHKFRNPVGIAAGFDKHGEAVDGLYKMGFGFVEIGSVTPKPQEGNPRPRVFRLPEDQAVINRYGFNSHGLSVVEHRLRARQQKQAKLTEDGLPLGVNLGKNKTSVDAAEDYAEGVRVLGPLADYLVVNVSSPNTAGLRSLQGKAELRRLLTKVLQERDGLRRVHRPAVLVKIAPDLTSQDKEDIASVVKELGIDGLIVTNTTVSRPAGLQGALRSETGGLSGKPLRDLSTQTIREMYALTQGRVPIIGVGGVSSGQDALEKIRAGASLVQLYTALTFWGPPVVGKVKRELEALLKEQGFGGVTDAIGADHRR

## CCc1cnc(-n2nc(OC(C)C)c(Oc3c(F)cccc3F)c2C)nc1 [example 8, 2-(4-(2,6-difluorophenoxy)-3-isopropoxy-5-methyl-1H-pyrazol-1-yl)-5-ethylpyrimidine]
Recombinant human DHODH
  IC50: 13 ± 1 nM
Measles virus
  MIC50: 0.0005 to 0.05 µM (≈ 0.000187 to 0.0187 µg/mL)
  IC50: 0.66 nM

## CCOc1nn(-c2ncc(CC)cn2)c(C)c1Oc1ccccc1Br [example 81, 2-(4-(2-bromophenoxy)-3-ethoxy-5-methyl-1H-pyrazol-1-yl)-5-ethylpyrimidine]
Recombinant human DHODH
  IC50: 1150 ± 170 nM
Measles virus
  MIC50: 0.05 to 0.5 µM (≈ 0.0202 to 0.202 µg/mL)
  IC50: 124 nM

## Cc1c(Cc2ccccc2)c(OC(C)C)nn1-c1ccc(C2CC2)cn1 [example 20, 2-(4-benzyl-3-isopropoxy-5-methyl-1H-pyrazol-1-yl)-5-cyclopropylpyridine]
Recombinant human DHODH
  IC50: 130 ± 5 nM
Measles virus
  MIC50: 0.0005 to 0.05 µM (≈ 0.000174 to 0.0174 µg/mL)
  IC50: 46 nM

## CC(C)Oc1nn(-c2ncc(C3CC3)cn2)cc1Oc1ccccc1F [example 67, 5-cyclopropyl-2-(4-(2-fluorophenoxy)-3-isopropoxy-1H-pyrazol-1-yl)pyrimidine]
Recombinant human DHODH
  IC50: 48 ± 7 nM
Measles virus
  MIC50: 0.0005 to 0.05 µM (≈ 0.000177 to 0.0177 µg/mL)
  IC50: 15 nM

## Cc1c(Cc2ccccc2F)c(OC(C)C)nn1-c1ncc(C2CC2)cn1 [example 10, 5-cyclopropyl-2-(4-(2-fluorobenzyl)-3-isopropoxy-5-methyl-1H-pyrazol-1-yl)pyrimidine]
Recombinant human DHODH
  IC50: 13 ± 2 nM
Measles virus
  MIC50: 0.0005 to 0.05 µM (≈ 0.000183 to 0.0183 µg/mL)
  IC50: 1.1 nM

## CCOc1nn(-c2ncc(CC)cn2)cc1I [example 107, 2-(3-ethoxy-4-iodo-1H-pyrazol-1-yl)-5-ethylpyrimidine]
Measles virus
  MIC50: > 5 µM

## CCOc1nn(-c2ccc(Cl)cn2)c(C)c1Cc1ccccc1 [example 39, 2-(4-benzyl-3-ethoxy-5-methyl-1H-pyrazol-1-yl)-5-chloropyridine]
Measles virus
  MIC50: 0.5 to 5 µM (≈ 0.164 to 1.64 µg/mL)

## COc1cnc(-n2nc(OC(C)C)c(Oc3c(F)cccc3F)c2C)nc1 [example 62, 2-(4-(2,6-difluorophenoxy)-3-isopropoxy-5-methyl-1H-pyrazol-1-yl)-5-methoxypyrimidine]
Measles virus
  MIC50: 0.0005 to 0.05 µM (≈ 0.000188 to 0.0188 µg/mL)

## CC(C)Oc1nn(-c2ccc(C3CC3)cn2)cc1C(O)c1ccccc1 (stereo not drawn) [example 179, (1-(5-cyclopropylpyridin-2-yl)-3-isopropoxy-1H-pyrazol-4-yl)(phenyl)methanol]
Measles virus
  MIC50: 0.05 to 0.5 µM (≈ 0.0175 to 0.175 µg/mL)

## CCOc1nn(-c2ccc(OC)cn2)c(C)c1Cc1ccccc1 [example 125, 2-(4-benzyl-3-ethoxy-5-methyl-1H-pyrazol-1-yl)-5-methoxypyridine]
Measles virus
  MIC50: 0.5 to 5 µM (≈ 0.162 to 1.62 µg/mL)

## CCOc1nn(-c2ccc(C3CC3)cn2)c(C)c1Oc1ccccc1Cl [example 63, 2-(4-(2-chlorophenoxy)-3-ethoxy-5-methyl-1H-pyrazol-1-yl)-5-cyclopropylpyridine]
Measles virus
  MIC50: 0.0005 to 0.05 µM (≈ 0.000185 to 0.0185 µg/mL)

## CCOc1nn(-c2ncc(CC)cn2)c(CN2CCOCC2)c1Cc1ccccc1 [example 115, 4-((4-benzyl-3-ethoxy-1-(5-ethylpyrimidin-2-yl)-1H-pyrazol-5-yl)methyl)morpholine]
Measles virus
  MIC50: > 5 µM

## Cc1c(Oc2c(F)cccc2F)c(OC(C)C)nn1-c1ccc(Br)cn1 [example 59, 5-bromo-2-(4-(2,6-difluorophenoxy)-3-isopropoxy-5-methyl-1H-pyrazol-1-yl)pyridine]
Measles virus
  MIC50: 0.05 to 0.5 µM (≈ 0.0212 to 0.212 µg/mL)

## Cc1ccc(-n2nc(OC(C)C)c(Oc3c(F)cccc3F)c2C)cn1 [example 128, 5-(4-(2,6-difluorophenoxy)-3-isopropoxy-5-methyl-1H-pyrazol-1-yl)-2-methylpyridine]
Measles virus
  MIC50: 0.0005 to 0.05 µM (≈ 0.00018 to 0.018 µg/mL)

## Cc1c(Oc2cccc(F)c2)c(OC(C)C)nn1-c1ccc(C2CC2)cn1 [example 97, 5-cyclopropyl-2-(4-(3-fluorophenoxy)-3-isopropoxy-5-methyl-1H-pyrazol-1-yl)pyridine]
Measles virus
  MIC50: 0.05 to 0.5 µM (≈ 0.0184 to 0.184 µg/mL)

## COc1cc(-c2ccc(Cl)c(Cl)c2)n(-c2ccccn2)n1 [example 143, 2-(5-(3,4-dichlorophenyl)-3-methoxy-1H-pyrazol-1-yl)pyridine]
Measles virus
  MIC50: > 5 µM

## CCOc1nn(-c2ccccn2)c(C)c1Cc1ccccc1 [example 30, 2-(4-benzyl-3-ethoxy-5-methyl-1H-pyrazol-1-yl)pyridine]
Measles virus
  MIC50: > 5 µM

## CCOc1nn(-c2ccc(C3CC3)cn2)c(C)c1Oc1ccccc1F [example 68, 5-cyclopropyl-2-(3-ethoxy-4-(2-fluorophenoxy)-5-methyl-1H-pyrazol-1-yl)pyridine]
Measles virus
  MIC50: 0.0005 to 0.05 µM (≈ 0.000177 to 0.0177 µg/mL)

## CCOc1nn(-c2ccccn2)c(C)c1Cc1cccc(Cl)c1 [example 163, 2-(4-(3-chlorobenzyl)-3-ethoxy-5-methyl-1H-pyrazol-1-yl)pyridine]
Measles virus
  MIC50: > 5 µM

## CCc1ccc(-n2nc(OC(C)C)c(Oc3c(F)cccc3F)c2C)nc1 [example 9B, 2-(4-(2,6-difluorophenoxy)-3-isopropoxy-5-methyl-1H-pyrazol-1-yl)-5-ethylpyridine]
Measles virus
  MIC50: 0.05 to 0.5 µM (≈ 0.0187 to 0.187 µg/mL)

## Cc1c(Oc2c(F)cccc2F)c(OC(C)C)nn1-c1cnc(C2CC2)cn1 [example 45, 2-cyclopropyl-5-(4-(2,6-difluorophenoxy)-3-isopropoxy-5-methyl-1H-pyrazol-1-yl)pyrazine]
Measles virus
  MIC50: 0.0005 to 0.05 µM (≈ 0.000193 to 0.0193 µg/mL)

## CCOc1nn(-c2ccc(C3CC3)cn2)c(C)c1Oc1cccc(Cl)c1Cl [example 49, 5-cyclopropyl-2-(4-(2,3-dichlorophenoxy)-3-ethoxy-5-methyl-1H-pyrazol-1-yl)pyridine]
Measles virus
  MIC50: 0.0005 to 0.05 µM (≈ 0.000202 to 0.0202 µg/mL)

## CCc1ccc(-n2nc(OC(C)C)c(Cc3ccccc3)c2C)cc1 [example 132, 4-benzyl-1-(4-ethylphenyl)-3-isopropoxy-5-methyl-1H-pyrazole]
Measles virus
  MIC50: 0.5 to 5 µM (≈ 0.167 to 1.67 µg/mL)

## CCc1cnc(-n2nc(OC(C)C)c(Cc3ccc(OC)cc3)c2C)nc1 [example 111, 5-ethyl-2-(3-isopropoxy-4-(4-methoxybenzyl)-5-methyl-1H-pyrazol-1-yl)pyrimidine]
Measles virus
  MIC50: 0.05 to 0.5 µM (≈ 0.0183 to 0.183 µg/mL)

## CCOc1nn(-c2ncc(CC)cn2)c(C)c1Oc1ccccc1Cl [example 78, 2-(4-(2-chlorophenoxy)-3-ethoxy-5-methyl-1H-pyrazol-1-yl)-5-ethylpyrimidine]
Measles virus
  MIC50: 0.05 to 0.5 µM (≈ 0.0179 to 0.179 µg/mL)

## CCOc1nn(-c2ccc(C3CC3)cn2)c(C)c1Cc1ccccc1 [example 172, 2-(4-benzyl-3-ethoxy-5-methyl-1H-pyrazol-1-yl)-5-cyclopropylpyridine]
Measles virus
  MIC50: 0.05 to 0.5 µM (≈ 0.0167 to 0.167 µg/mL)

## CC(C)Oc1nn(-c2ccc(C3CC3)cn2)cc1C(=O)c1ccccc1 [example 109, (1-(5-cyclopropylpyridin-2-yl)-3-isopropoxy-1H-pyrazol-4-yl)(phenyl)methanone]
Measles virus
  MIC50: 0.5 to 5 µM (≈ 0.174 to 1.74 µg/mL)

## COc1cc(C2CC2)cnc1-n1cc(Oc2ccccc2F)c(OC(C)C)n1 [example 185, 5-cyclopropyl-2-(4-(2-fluorophenoxy)-3-isopropoxy-1H-pyrazol-1-yl)-3-methoxypyridine]
Measles virus
  MIC50: 0.05 to 0.5 µM (≈ 0.0192 to 0.192 µg/mL)

## CCOc1nn(-c2ccc(C)cn2)c(C)c1Oc1ccccc1 [example 127, 2-(3-ethoxy-5-methyl-4-phenoxy-1H-pyrazol-1-yl)-5-methylpyridine]
Measles virus
  MIC50: 0.5 to 5 µM (≈ 0.155 to 1.55 µg/mL)

## CCc1nnc(-n2nc(OC(C)C)c(Oc3c(F)cccc3F)c2C)nc1O [example 118, 3-(4-(2,6-difluorophenoxy)-3-isopropoxy-5-methyl-1H-pyrazol-1-yl)-6-ethyl-1,2,4-triazin-5-ol]
Measles virus
  MIC50: 0.0005 to 0.05 µM (≈ 0.000196 to 0.0196 µg/mL)

## CC(C)Oc1nn(-c2ncc(C3CC3)cc2C#N)cc1Oc1ccccc1 [example 75, 5-cyclopropyl-2-(3-isopropoxy-4-phenoxy-1H-pyrazol-1-yl)nicotinonitrile]
Measles virus
  MIC50: > 5 µM

## Cc1cnc(-n2nc(OC(C)C)c(Oc3c(F)cccc3F)c2C)nc1 [example 47, 2-(4-(2,6-difluorophenoxy)-3-isopropoxy-5-methyl-1H-pyrazol-1-yl)-5-methylpyrimidine]
Measles virus
  MIC50: 0.0005 to 0.05 µM (≈ 0.00018 to 0.018 µg/mL)

## Cc1c(Oc2ccc(F)cc2F)c(OC(C)C)nn1-c1ccc(C2CC2)cn1 [example 17, 5-cyclopropyl-2-(4-(2,4-difluorophenoxy)-3-isopropoxy-5-methyl-1H-pyrazol-1-yl)pyridine]
Measles virus
  MIC50: 0.05 to 0.5 µM (≈ 0.0193 to 0.193 µg/mL)

## Cc1c(Oc2c(F)cccc2F)c(OC(C)C)nn1-c1ccccn1 [example 4, 2-(4-(2,6-difluorophenoxy)-3-isopropoxy-5-methyl-1H-pyrazol-1-yl)pyridine]
Measles virus
  MIC50: > 5 µM

## CCOc1nn(-c2ncc(C3CC3)cc2F)c(C)c1Cc1ccccc1 [example 35, 2-(4-benzyl-3-ethoxy-5-methyl-1H-pyrazol-1-yl)-5-cyclopropyl-3-fluoropyridine]
Measles virus
  MIC50: 0.05 to 0.5 µM (≈ 0.0176 to 0.176 µg/mL)

## CCOc1cc(-c2ccc(Cl)cc2)n(-c2ccccn2)n1 [example 147, 2-(5-(4-chlorophenyl)-3-ethoxy-1H-pyrazol-1-yl)pyridine]
Measles virus
  MIC50: > 5 µM

## CCOc1nn(-c2ccccn2)c(C)c1-c1ccc(OC)cc1 [example 160, 2-(3-ethoxy-4-(4-methoxyphenyl)-5-methyl-1H-pyrazol-1-yl)pyridine]
Measles virus
  MIC50: > 5 µM

## CC(C)Oc1nn(-c2ncc(C3CC3)cn2)cc1Oc1ccccc1 [example 100, 5-cyclopropyl-2-(3-isopropoxy-4-phenoxy-1H-pyrazol-1-yl)pyrimidine]
Measles virus
  MIC50: 0.05 to 0.5 µM (≈ 0.0168 to 0.168 µg/mL)

## CCOc1nn(-c2cccc(C)n2)c(C)c1Cc1ccccc1 [example 33, 2-(4-benzyl-3-ethoxy-5-methyl-1H-pyrazol-1-yl)-6-methylpyridine]
Measles virus
  MIC50: > 5 µM

## CCC(C)Oc1nn(-c2ncc(C3CC3)cn2)c(C)c1Cc1ccccc1 (stereo not drawn) [example 142, 2-(4-benzyl-3-sec-butoxy-5-methyl-1H-pyrazol-1-yl)-5-cyclopropylpyrimidine]
Measles virus
  MIC50: 0.0005 to 0.05 µM (≈ 0.000181 to 0.0181 µg/mL)

## CC(C)Oc1nn(-c2ccc(C3CC3)cn2)cc1Sc1ccccc1 [example 105, 5-cyclopropyl-2-(3-isopropoxy-4-(phenylthio)-1H-pyrazol-1-yl)pyridine]
Measles virus
  MIC50: 0.05 to 0.5 µM (≈ 0.0176 to 0.176 µg/mL)

## CCOc1nn(-c2ncc(CC)cn2)c(C)c1-c1ccccc1 [example 153, 2-(3-ethoxy-5-methyl-4-phenyl-1H-pyrazol-1-yl)-5-ethylpyrimidine]
Measles virus
  MIC50: 0.5 to 5 µM (≈ 0.154 to 1.54 µg/mL)

## CCc1cnc(-n2nc(OC(C)C)c(Oc3cccc(F)c3F)c2C)nc1 [example 77, 2-(4-(2,3-difluorophenoxy)-3-isopropoxy-5-methyl-1H-pyrazol-1-yl)-5-ethylpyrimidine]
Measles virus
  MIC50: 0.05 to 0.5 µM (≈ 0.0187 to 0.187 µg/mL)

## CCCCCc1cnc(-n2nc(OCC)c(Cc3ccccc3)c2C)nc1 [example 28, 2-(4-benzyl-3-ethoxy-5-methyl-1H-pyrazol-1-yl)-5-pentylpyrimidine]
Measles virus
  MIC50: > 5 µM
